Patent US20150158914A1, “PEPTIDES, CONSTRUCTS AND USES THEREFOR” (priority 2010, published 2015)
“Also recorded” adds a separate entry of the source. Where two headings read alike, the source gives them in different places. Ends that are not written are not given here. * marks the point of attachment. FITC = O=C1OC2(c3ccc(O)cc3Oc3cc(O)ccc32)c2ccc(NC(=S)*)cc21; Biotin = O=C1N[C@H]2[C@H](CS[C@H]2CCCCC(=O)*)N1; Acp = not defined here

Tests used:
[1] = tested on: X-protein; assay: Western blot of X-protein in transfected HepG2 cells treated with X-protein-degradation domain fusion peptides; assay type: cell-based, hepatitis B virus; settings: HepG2 transfected with pCDNA3.1-HBX or pCDNA3-HBX Myc; 10 μM peptide at 3 h, 24 h and 48 h post transfection
Description: HepG2 cells were seeded into 6 well plates at 1×10^6 cells per well in MEM medium supplemented with 10% FCS, and cultured overnight at 37° and 5% CO2. No PSG antibiotic was added to the medium as it can interfere with transfection efficiency. The medium was then removed and replaced with MEM medium without 10% FCS. The amount of DNA used for transfection was 4 μg. Firstly, 4 μg of DNA was mixed with 250 μl of Opti-MEM medium, and then 4 μl of polymag transfection reagent was added. The mixture was incubated for 20 min and then added to the cells. The plate was placed onto a magnetic plate on a rotating platform for 20 min.
Cell-permeable X-protein-degradation domain fusion peptides were added at a concentration of 10 μM to the cells in MEM without 10% FCS and cells incubated for 45 h. […] An additional 10 μM of peptide was added after 3 h of incubation, and a further 10 μM of peptide was added after 21 h incubation. When the additional aliquots of peptide were added, the cells were washed in MEM without FCS, the peptides added, and the cells incubated for 3 h before changing the medium to MEM containing 10% FCS and PSG. The cells were lysed and analyzed by Western blot analysis for expression of the X-proteins.
Cells were washed with PBS, and detached from plates by incubation with trypsin diluted in PBS. Cells were washed with MEM containing FCS to inactivate trypsin, and pelleted by centrifugation at 175 g for 5 min. They were then resuspended in 1 ml of PBS, and a 10 μl sample was removed, stained with Trypan blue, and cell number counted with a haemocytometer. The cells were then pelleted at 4,000 g for 5 min and thrice washed in PBS. All traces of liquid were removed and the cells were ready for cell lysis. Complete Lysis Buffer was added to the cells at 20 μl per 1×10^6 cells. The cells were resuspended very well to aid lysis and then left on ice for 10 min. They were centrifuged at 15,000 g for 10 min, and the supernatant collected and saved. The nuclear precipitate was processed by adding 13 μl of lysis buffer, 2 μl of 2% SDS, 2 μl of Na deoxycholate, 2 μl of DNAse buffer and 1 μl of DNAse I. The sticky cell lysate was resuspended vigorously after each reagent was added then incubated at 37° for 10 min.
The two X-protein-ODD fusion peptides were tested for their ability to decrease the level of X-protein expression. HepG2 cells were transfected with 4 μg of either the X-protein plasmids pCDNA3.1-HBX and pCDNA3-HBX Myc, or 4 μg of the pCDNA3-GFP vector. The X-protein-ODD fusion peptides were repetitively added to the cells at 3 h, 24 h and 48 h post transfection. Control transfectants were not treated with peptide, but were otherwise cultured under the same conditions. Transfectants were subjected to Western blotting to determine whether the X-protein was expressed. […]

[2] = tested on: HepG2 cells; assay: Assay for cell permeability of X-protein peptides (fluorescence and confocal microscopy); assay type: cell-based, human; settings: for uptake by HepG2 cells (cell permeability): FITC-labelled peptide 10 μM, 3 h, medium without FCS; for intracellular distribution (confocal slicing): FITC-labelled peptide, HepG2 cells
Description: The cells were then incubated overnight at 37° and 5% CO2, and then washed thrice with media without FCS. The X-protein peptide in 250 μl of appropriate media without FCS was added to the cells at a final concentration of 10 μM, and the slides incubated for 3 h at 37° C. and 5% CO2. The cells were washed with PBS, fixed with 4% formaldahyde in PBS for 30 min, and washed thrice with PBS. […] The slides were dried overnight in the dark, and examined by microscopy by using a Nikon E600 fluorescent microscope. Photos were taken using Nikon ACT-1 software. For further examination, slides were then examined by confocal microscopy using a Leica TCS-SP2 confocal microscope.

[3] = tested on: TK-1 T cells adherent to MAdCAM-1; assay: Carriage of a foreign peptide into TK-1 cells; assay type: cell-based; settings: 50 μM, 30 min, streptavidin-FITC detection
Description: Eight-well glass chamber slides were coated overnight at 4° C. with MAdCAM-1-Fc. They were blocked with FCS at RT for 2 h. TK-1 T cells were activated with 2 mM Mn2+/Ca2+ in HBSS buffer and added to MAdCAM-1 coated glass slides, followed by incubation for 15 min. Peptides […] (SEQ ID NO 15) and R9YDRREY (SEQ ID NO 14) were added at 50 μM followed by incubation for 30 min. The cells were fixed overnight in 4% PFA, permeabilised with PBS+0.1% Tween 20 for 15 min, blocked with 3% BSA in PBS for 1 h, and the presence of the peptides detected with FITC-Streptavidin (1:200 dilution in 3% BSA in PBS 1 h). Slides were mounted with Prolong gold with DAPI.
The X-protein cell-permeable peptide LCLRPVG (SEQ ID NO: 2) was fused to the hexapeptide YDRREY (SEQ ID NO 16) taken from the cytoplasmic domain of the human integrin β7 subunit. The peptides were separated by a glycine linker, and a biotin tag was added N-terminally. The fusion peptide was compared with the YDRREY (SEQ ID NO 16) peptide fused to an R9 (SEQ ID NO: 145) carrier peptide for its ability to enter TK-1 T cells adherent to MAdCAM-1.

[4] = biological target: T1, X-protein N-terminal peptide 1-50 (Hepatitis B virus genotype C subtype adr, UniProt Q81163, DEL44-44/P38S/S41A/S42F/V5L); assay: Peptide binding assay: FITC-peptides on peptide 1-50-coated plates; settings: FITC-peptide at 10, 20, 40 μg/ml, 30 min
T1 construct: The parent peptide containing aa 1-50 conjugated N-terminally to a biotin tag; purchased; host or cells: chemical synthesis
Description: Qligomerization peptides were received in powdered form, and were weighed and diluted in a sterile 10% DMSO solution to make a 10 mg/ml stock solution. The wells of a Reactibind neutravidin-coated 96 well plate (Thermoscientific cat #15507) were thrice washed with 200 μl of plate washing buffer. Peptide 1-50, which contains a biotin tag, was diluted to 10 μg/ml in wash buffer and 100 μl of the solution was placed into each well being used. The plate was incubated at room temperature for 2 h, and the wells washed thrice with 200 μl of wash buffer. Truncated fluorescent variants of peptide 1-50 at 40 μg/ml, 20 μg/ml, and 10 μg/ml were added to the wells in triplicate, and the plates incubated at room temperature for 30 min. The wells were then washed thrice with 200 μl of wash buffer under low light conditions, and the plate read on a Biotek fluorescent plate reader at an excitation wavelength of 490 nm and an emission wavelength of 520 nm.
A ligand-binding assay was performed using streptavidin-coated plates in order to define the minimum peptide motif needed for dimerization of the X-protein. In this scenario the X-protein monomer serves as its own ligand. […] A series of short peptides from the region encoding aa 1-50 were synthesized. The parent peptide containing aa 1-50 conjugated N-terminally to a biotin tag was added to the streptavidin coated plates. […] Non-biotinylated peptides encoding aa 1-20, 16-35, 21-40 and 34-53 were added at 10, 20, and 40 μg/ml to the wells coated with peptide aa 1-50. The smaller peptides were each conjugated to a FITC tag for detection using a fluorescent plate reader. […] Binding performed with lesser concentrations of the peptides was not significant. Even smaller peptides encompassing that region 16-35 were made to determine whether the aa 16-35 was the minimum peptide motif needed for X-protein dimerization. These peptides synthesized, namely aa 16-26, 16-24, and 16-22 were analyzed using the same peptide binding assay. […] Thus of the peptides examined, the minimal peptide motif needed for dimerization of the X-protein is the […] peptide 16-35.

[5] = tested on: WM-266-4 melanoma cells; settings: WM-266-4, 20 μM, 3 h
Description: (§1) The melanoma cell lines WM-266-4 and C32 were seeded into 8-well chamber slides at 1×10^5 cells per well in full MEM media and incubated at 37° C. and 5% CO2 overnight. The next day the cells were washed thrice with serum-free MEM, resuspended in 500 μl of the same medium, and added to the wells. […] Annexin-V labelling solution was prepared by adding 20 μl of Annexin V labelling reagent and 10 μl of propidium iodide in 1 ml of incubation buffer. The cells were washed with incubation buffer, and 100 μl of Annexin-V labelling solution was added, followed by incubation for 15 min in the dark. The cells were washed with incubation buffer, fixed with 4% formaldehyde in PBS for 30 min, washed with PBS and slide chambers removed. A drop of Prolong Gold anti-fade reagent with DAPI was added to each sample, the slides dried overnight, and then examined by fluorescence microscopy.

[6] = tested on: C32 melanoma cells; settings: C32, 10 μM, 3 h
Description: as §1

[7] = biological target: mutated B-Raf (Homo sapiens, UniProt P15056, V600E); settings: in vivo; cited from earlier work
mutated B-Raf, sequence (P15056 whole entry V600E): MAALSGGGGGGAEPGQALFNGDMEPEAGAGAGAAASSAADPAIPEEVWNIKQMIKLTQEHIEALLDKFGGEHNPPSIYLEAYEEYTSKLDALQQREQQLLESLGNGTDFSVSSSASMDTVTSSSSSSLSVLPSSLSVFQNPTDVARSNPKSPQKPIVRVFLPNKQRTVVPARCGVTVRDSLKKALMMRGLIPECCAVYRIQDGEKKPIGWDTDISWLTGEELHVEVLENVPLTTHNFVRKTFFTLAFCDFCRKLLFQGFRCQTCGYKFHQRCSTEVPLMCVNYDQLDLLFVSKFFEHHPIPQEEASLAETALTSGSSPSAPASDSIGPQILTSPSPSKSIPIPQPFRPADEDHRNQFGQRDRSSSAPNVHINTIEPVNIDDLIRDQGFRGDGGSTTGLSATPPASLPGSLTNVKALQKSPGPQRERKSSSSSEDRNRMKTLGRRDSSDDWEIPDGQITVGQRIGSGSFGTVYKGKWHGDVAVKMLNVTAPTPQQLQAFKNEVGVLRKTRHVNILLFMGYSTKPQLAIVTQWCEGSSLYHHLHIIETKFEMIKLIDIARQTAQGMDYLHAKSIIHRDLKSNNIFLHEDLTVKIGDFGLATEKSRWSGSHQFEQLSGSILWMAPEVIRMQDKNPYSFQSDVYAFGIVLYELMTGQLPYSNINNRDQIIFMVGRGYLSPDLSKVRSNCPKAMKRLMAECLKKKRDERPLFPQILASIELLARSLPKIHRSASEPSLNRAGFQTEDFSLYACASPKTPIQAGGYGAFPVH

[8] = tested on: WM-266-4 melanoma cells; assay: Apoptosis by anti-B-raf antibody delivered with the carrier peptide (Annexin-V fluos); assay type: cell-based; settings: 1 μg/ml, 3 h
Description: The carrier peptide-rabbit anti-B-raf antibody conjugate (1 μg/ml), the unconjugated carrier peptide and unconjugated anti-B-raf antibody (1 μg/ml) were added to WM-266-4 melanoma cells, and cell apoptosis was assessed after 3 h by addition of Annexin-V fluos, with visualization by fluorescence microscopy. Untreated cells were included as an additional control. Cell nuclei were stained with DAPI. The results were merged to illustrate the numbers of cells that underwent apoptosis compared with the total number of cells ie the proportion of cells that underwent apoptosis.

[9] = listed as biotin-RRRRRRRRHKLVRSPAPCKFFTSAGGLNVTAPTPQQLQAFKNEVGVLRK

With “FITC-Acp-RRRRRRRRMLAPYIPMGGLCLRPVGAESRGRPVSGPFG” the “degradation of the X-protein (Western blot, nuclear fraction)” value [1] was “complete degradation of the X-protein”.

For “FITC-Acp-FGPLSSPAFSVPADHGAHLS ({FITC-Acp}-FGPLSSPAFSVPADHGAHLS; reading uncertain; also: printed as FITC-Acp-FGPLSSPAFSVPADHGAHLS) [Peptide 34-53]”, the “uptake by HepG2 cells (cell permeability)” value (shortened to “uptake by HepG2 cells”) [2] was “not cell-permeable”.

For “R9YDRREY (RRRRRRRRRYDRREY; not fully specified (N-terminus); also: biotin, position not given here) [Peptide R9YDRREY, biotinylated YDRREY peptide fused to an R9 carrier peptide, reference compound]”, the “uptake of biotinylated fusion peptide into TK-1 cells” value [3] was “entered all the cells”.

For LCLRPVGAESRGRPV [Peptide 16-30], the “binding to peptide 1-50 (fluorescence)” value [4] was “binds to the X-protein N-terminal peptide 1-50; also recorded: bound peptide 1-50 even more strongly than peptide 16-35”.

In the case of “FITC-Acp-MAARLCCQLDPARDVLCLRP [Peptide 1-20]”, the “uptake by HepG2 cells” value ([2]; listed as aa 1-20) is reported as “cell-permeable; also recorded: readily taken up by the cells” and the “intracellular distribution (confocal slicing)” value [2] is reported as “taken up into the cell cytoplasm, as well as into the nucleus”.

For “FITC-LCLRP ({FITC}-LCLRP) [Peptide 16-20]”, the “uptake by HepG2 cells” value ([2]; listed as aa 16-20) was “cell-permeable; also recorded: taken up into the cells”.

For “Biotin-RRRRRRRRLCLRPVGAESRGRPVSGPFGGCRHKLVRSPAPCKFFTSA (cysteine pairing not given here)”, the “degradation of the X-protein (Western blot, nuclear fraction)” value [1] was “near complete degradation of the X-protein, with slight preference for the full length protein”.

With “Biotin-RRRRRRRRHKLVRSPAPCKFFTSAGGLNVTAPTPQQLQAFKNEVGVLRK [B-Raf targeting peptide]” the “tumour cell death / apoptosis” value [5] was “killed the melanoma cells”, the “tumour cell death / apoptosis” value [5, 9] was “led to tumour cell death” and the “tumour cell death / apoptosis” value [6] was “killed the melanoma cells”. The “tumour cell death / apoptosis” value [6, 9] was “led to tumour cell death”.

For `CCCS(=O)(=O)Nc1ccc(F)c(C(=O)c2c[nH]c3ncc(-c4ccc(Cl)cc4)cc23)c1F` [PLX4032], the “patients with regression of melanomas” value [7] is listed as 80 % of patients.

With “Biotin-RRRRRRRRHKLVRSPAPCKFFTSAGGLCLRPVGAESRGRPVSGPFG (cysteine pairing not given here)” the “degradation of the X-protein (Western blot, nuclear fraction)” value [1] was “complete degradation of the X-protein”.

In the case of “FITC-LCLRPVGAE ({FITC}-LCLRPVGAE) [Peptide 16-24]”, the “uptake by HepG2 cells” value ([2]; listed as aa 16-24) is reported as “cell-permeable, being taken up by cells at a level equivalent to that of the parental peptide aa 16-35” and the “binding to peptide 1-50 (fluorescence)” value [4] is reported as “could not match the strong binding shown by the parental peptide 16-35”.

For “FITC-Acp-RRRRRRRRLCLRPVGAESRGRPVSGPFGGMLAPYIPM”, the “degradation of the X-protein (Western blot, nuclear fraction)” value [1] was “near complete degradation of the X-protein”.

For “MAARLCCQ (cysteine pairing not given here; also: fluorescein label, position not given here) [Peptide 1-8]”, the “uptake by HepG2 cells” value [2] was “cell-permeable”.

For “LCLRPVGGYDRREY (Biotin-LCLRPVGGYDRREY) [biotinylated LCLRPVG fused via glycine linker to β7 integrin hexapeptide YDRREY]”, the “uptake of biotinylated fusion peptide into TK-1 cells” value [3] was “uniformly taken up in similar amounts by all cells”.

With “FITC-LCLRPVGAESR ({FITC}-LCLRPVGAESR) [Peptide 16-26]” the “uptake by HepG2 cells” value ([2]; listed as aa 16-26) was “cell-permeable, being taken up by cells at a level equivalent to that of the parental peptide aa 16-35” and the “binding to peptide 1-50 (fluorescence)” value [4] was “could not match the strong binding shown by the parental peptide 16-35”.

In the case of “FITC-Acp-VGAESRGRPVSGPFGPLSSP ({FITC-Acp}-VGAESRGRPVSGPFGPLSSP; reading uncertain; also: printed as FITC-Acp-VGAESRGRPVSGPFGPLSSP) [Peptide 21-40]”, the “uptake by HepG2 cells” value [2] is reported as “not cell-permeable” and the “binding to peptide 1-50 (fluorescence)” value [4] is reported as “failed to appreciably bind peptide 1-50”.

With Biotin-LCLRPVGGGRRRQQQQQQRRR the cell apoptosis [8] was “no detectable effect”.

With MAARLCCQLDPARDV [Peptide 1-15] the “uptake by HepG2 cells” value ([2]; listed as aa 1-15) was “cell-permeable; also recorded: taken up into the cells” and the “intracellular distribution (confocal slicing)” value [2] was “taken up into the cytoplasm and nucleus”.
